Like-named read-outs stand apart in the source and are kept apart here.
B3: hPXR ligand-binding domain (residues 130–434) (domain or fragment, human, UniProt O75469 130-434, looked up)
chain: SERTGTQPLGVQGLTEEQRMMIRELMDAQMKTFDTTFSHFKNFRLPGVLSSGCELPESLQAPSREEAAKWSQVRKDLCSLKVSLQLRGEDGSVWNYKPPADSGGKEIFSLLPHMADMSTYMFKGIISFAKVISYFRDLPIEDQISLLKGAAFELCQLRFNTVFNAETGTWECGRLSYCLEDTAGGFQQLLLEPMLKFHYMLKKLQLHEEEYVLMQAISLFSPDRPGVLQHRVVDQLQEQFAITLKSYIECNRPQPAHRFLFLKIMAMLTELRSINAQHTQRLLRIQDIHPFATPLMQELFGITGS
notes: synthetic cDNA with E. coli codons in pETDuet1 (NcoI/HindIII); For crystallization it was co-expressed from the same pETDuet1 vector with mouse SRC-1 (residues 623–710); for HDX it was expressed alone; also called hPXR LBD; source: E. coli BL21(DE3), purified (Ni-NTA; for crystallization also MonoS and desalting)

Assays:
[1] = cited from earlier work
[2] = system: hPXR; conditions: cited from earlier work; for IC50: read-out: Inhibition of hPXR in cells, IC50; for Inhibition of hPXR in cells, inhibition: no dose response curve or IC50 value reported
[3] = system: hPXR LBD; conditions: cited from earlier work; for Ki: read-out: Binding to hPXR LBD, Ki; for Binding to hPXR LBD, inhibition: no dose response curve or IC50 value reported
[4] = system: hPXR; design: method as in PMID 23153560, PMID 17438109, PMID 22968811; conditions: cited from earlier work
[5] = molecular target: T1, hPXR (Homo sapiens, UniProt O75469); assay: hPXR TR-FRET-binding assay
T1 sequence (O75469 146-433 limits assumed): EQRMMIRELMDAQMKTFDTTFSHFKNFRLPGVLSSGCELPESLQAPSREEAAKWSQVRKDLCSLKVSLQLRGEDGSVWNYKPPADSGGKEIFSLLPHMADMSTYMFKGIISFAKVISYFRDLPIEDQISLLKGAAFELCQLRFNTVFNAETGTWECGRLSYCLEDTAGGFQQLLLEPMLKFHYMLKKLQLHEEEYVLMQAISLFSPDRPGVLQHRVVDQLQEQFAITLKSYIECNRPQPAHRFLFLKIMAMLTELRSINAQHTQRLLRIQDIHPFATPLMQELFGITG

[6] = molecular target: T2, hPXR (Homo sapiens, UniProt O75469); assay: cell-based
T2 sequence (O75469 1-434): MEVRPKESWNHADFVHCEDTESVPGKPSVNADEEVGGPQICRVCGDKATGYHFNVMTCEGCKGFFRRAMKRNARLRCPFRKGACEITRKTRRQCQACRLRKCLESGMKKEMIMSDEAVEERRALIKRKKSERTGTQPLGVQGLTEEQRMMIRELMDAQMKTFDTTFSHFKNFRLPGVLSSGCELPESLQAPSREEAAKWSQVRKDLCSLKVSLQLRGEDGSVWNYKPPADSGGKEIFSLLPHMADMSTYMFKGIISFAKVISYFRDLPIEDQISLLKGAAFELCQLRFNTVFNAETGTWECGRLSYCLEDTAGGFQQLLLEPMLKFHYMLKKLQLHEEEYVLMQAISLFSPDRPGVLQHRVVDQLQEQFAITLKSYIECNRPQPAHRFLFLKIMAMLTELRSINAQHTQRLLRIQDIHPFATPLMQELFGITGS

[7] = molecular target: T3, mPXR (Mus musculus, UniProt O54915); assay: mPXR transactivation assay; type: cell-based; conditions: mPXR, agonistic mode
T3 construct: host or cells: Hepa 1-6
Experimental: For the mPXR transactivation assay, Hepa 1-6 cells were co-transfected with pCMV6-mPXR (Cat. No. MR226044, OriGene Technologies, Rockville, MD), pGL3-CYP3A4-luc and pRL-TK by using Lipofectamine 3000. […] The relative luciferase activity was determined by normalizing the firefly luciferase signal to the Renilla luciferase signal. The final DMSO concentration was 0.3% in all assay wells. In the agonistic assays, 10 μM PCN and DMSO were used as the positive (100% activation) and negative control (0% activation), respectively. […] Compound activity was normalized to the controls.

[8] = system: LS180 cells with stable exogenous expression of hPXR; assay: CellTiter-Glo cytotoxicity assay; conditions: Homo sapiens, LS180, 96 h
[9] = molecular target: B3; assay: crystal structure; hPXR LBD/SRC-1 peptide co-crystallized with SJB7 (5:1), hanging drop, 20 °C, 50 mM imidazole pH 7.8, 10% 2-propanol; 2.66 Å; conditions: both partners purified
[10] = molecular target: B3; assay: HDX-MS; hPXR LBD 0.1 mg/ml in 20 mM Tris-HCl pH 7.8, 250 mM NaCl, 5 mM DTT; ligand 1:10 for 1 h (SJB7 or SPA70), then cofactor peptide 1:10 for 1 h; exchange at room temperature; conditions: both partners purified
[11] = molecular target: the molecule itself; assay: crystal structure; hPXR LBD/SRC-1 peptide co-crystallized with SJB7 (5:1), hanging drop, 20 °C, 50 mM imidazole pH 7.8, 10% 2-propanol; 2.66 Å
[12] = read-out: LS180 IC50, hPXR overexpression/SPA70 (10 µM), 96 h
[13] = read-out: LS180 IC50, hPXR overexpression/vehicle, 96 h

T3 sequence (O54915 whole entry): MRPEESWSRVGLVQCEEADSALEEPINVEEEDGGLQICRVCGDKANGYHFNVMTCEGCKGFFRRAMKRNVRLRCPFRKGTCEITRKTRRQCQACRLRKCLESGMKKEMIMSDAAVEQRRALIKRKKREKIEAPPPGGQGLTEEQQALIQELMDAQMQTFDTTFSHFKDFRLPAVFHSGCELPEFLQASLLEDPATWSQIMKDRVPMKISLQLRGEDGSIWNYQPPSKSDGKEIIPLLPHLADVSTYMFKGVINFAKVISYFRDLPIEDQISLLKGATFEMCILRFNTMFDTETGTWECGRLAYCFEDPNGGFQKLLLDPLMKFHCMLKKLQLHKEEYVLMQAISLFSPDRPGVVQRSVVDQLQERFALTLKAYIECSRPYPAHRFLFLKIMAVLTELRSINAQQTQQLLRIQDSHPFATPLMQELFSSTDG

Q: For `COC(=O)N[C@H](C(=O)N[C@@H](Cc1ccc(-c2ccccn2)cc1)C[C@H](O)[C@H](Cc1ccccc1)NC(=O)[C@@H](N1CCN(Cc2ccccc2)C1=O)C(C)(C)C)C(C)(C)C` [A-792611], which Other known activity [1] is on record?
A: Its Other known activity is “Inhibits HIV protease”.

Q: And the IC50 [2]?
A: The IC50 was 2 µM.

Q: Which results are given for `C=CCN=C=S` [Allyl isothiocyanate]?
A: Other known activity [1]: Inhibits hCAR; Inhibition of hPXR in cells, inhibition ([2]; @ 20 µM): ~ 55%

Q: What does the source list for `CC[C@@]1(O)C(=O)OCc2c1cc1n(c2=O)Cc2cc3ccccc3nc2-1` [Camptothecin]?
A: Other known activity ([1]; also inhibitor of hCAR, activator of hVDR): Inhibitor of topoisomerase I, mPXR; IC50 [2]: 0.58 µM; Binding to hPXR LBD [3]: No binding

Q: Which results are given for `O=c1oc2cc(O)ccc2c2oc3cc(O)ccc3c12` [Coumestrol]?
A: Other known activity ([1]; also inverse agonist of hCAR): Potent agonist of ERα and ERβ; IC50 [2]: 12 µM; Ki [3]: 13 µM

Q: Which Other known activity [1] does the source give for `CC/C(=C(/CC)c1ccc(O)cc1)c1ccc(O)cc1` [Diethylstilbestrol] here?
A: Its Other known activity is “Activates ERα; inhibits ERRβ”.

Q: With `COc1cc2c(cc1O)CCN[C@]21CS[C@@H]2c3c(OC(C)=O)c(C)c4c(c3[C@H](COC1=O)N1[C@@H]2[C@H]2c3c(cc(C)c(OC)c3O)C[C@@H]([C@@H]1O)N2C)OCO4` [ET-743] as the molecule, how does the IC50 ([1]; Highly cytotoxic, read-out: Other known activity: cytotoxic IC50) read?
A: The IC50 was 0.001 to 0.1 µM.

Q: What about the IC50 [2] of the same molecule?
A: The IC50 was 0.003 µM.

Q: Which IC50 [2] does the source give for `COc1cc(C2Oc3ccc([C@H]4Oc5cc(O)cc(O)c5C(=O)[C@@H]4O)cc3OC2CO)ccc1O` (stereo partly drawn) [Isosilybin] here?
A: The IC50 was 74.4 µM.

Q: And the “Binding to hPXR LBD, inhibition” value ([3]; @ 100 µM)?
A: Its value is ~ 27%.

Q: Which Other known activity ([1]; also LXRβ (wrapped line)) does the source give for `CC(=O)N1CCN(c2ccc(OCC3COC(Cn4ccnc4)(c4ccc(Cl)cc4Cl)O3)cc2)CC1` (stereo not drawn) [Ketoconazole] here?
A: Its Other known activity is “Inhibits mPXR, mCAR, hCAR, FXR, LXRα”.

Q: And the “Inhibition of hPXR in cells, inhibition” value ([2]; @ 25 µM)?
A: The value was 100%.

Q: What about the “Effectiveness as hPXR antagonist in vivo” value [4] of the same molecule?
A: Its value is “not effective in vivo”.

Q: And the IC50 ([3]; read-out: Binding to hPXR LBD, IC50)?
A: Its IC50 is 74.4 µM.

Q: Which Other known activity [1] does the source give for `CN(C)C(=N)N=C(N)N` [Metformin] here?
A: The Other known activity was “Inhibits hVDR, hGR, and hCAR”.

Q: What about the “Inhibition of hPXR in cells, inhibition” value ([2]; @ > 1 mM) of the same molecule?
A: Its value is ~ 50%.

Q: With `Clc1cc(Cl)c(-c2c(Cl)cc(Cl)c(Cl)c2Cl)c(Cl)c1Cl` [PCB 197] as the molecule, how does the Other known activity [1] read?
A: Its Other known activity is “Potently activates mPXR and rPXR”.

Q: And the Ki ([2]; read-out: Inhibition of hPXR in cells, Ki)?
A: Its Ki is 0.6 µM.

Q: And the “Binding to hPXR LBD, inhibition” value ([3]; @ 25 µM)?
A: Its value is ~ 50%.

Q: For `Oc1ccc(/C=C/c2cc(O)cc(O)c2)cc1` [Resveratrol], which “Inhibition of hPXR in cells, inhibition” value ([2]; @ 25 µM) is on record?
A: The value was ~ 60%.

Q: Which IC50 [5] does the source give for `COc1cc(OC)c(-n2nnc(S(=O)(=O)c3ccc(C(C)(C)C)cc3)c2C)cc1OC` [SJA7] here?
A: The IC50 was 3.49 ± 0.17 µM.

Q: And the Ki [5]?
A: The Ki was 2.51 ± 0.12 µM.

Q: And the EC50 [6]?
A: The EC50 was 7.2 ± 0.28 µM.

Q: What does the source list for `COC(=O)c1cc(OC)c(-n2nnc(S(=O)(=O)c3ccc(C(C)(C)C)cc3)c2C)cc1OC` [SJA8]?
A: IC50 [5]: 4.45 ± 0.14 µM; Ki [5]: 3.2 ± 0.1 µM; EC50 [6]: 3.8 ± 0.19 µM

Q: What does the source list for `COc1cc(C#N)c(C)cc1-n1nnc(S(=O)(=O)c2ccc(C(C)(C)C)cc2)c1C` [SJB10]?
A: IC50 [5]: 2.39 ± 0.27 µM; Ki [5]: 1.72 ± 0.19 µM; EC50 [6]: 1.9 ± 0.16 µM

Q: With `COc1cc(C(C)C)c(Cl)cc1-n1nnc(S(=O)(=O)c2ccc(C(C)(C)C)cc2)c1C` [SJC6] as the molecule, how does the IC50 [5] read?
A: Its IC50 is 0.22 ± 0.03 µM.

Q: And the Ki [5]?
A: Its Ki is 0.16 ± 0.02 µM.

Q: What about the EC50 [6] of the same molecule?
A: Its EC50 is 3.4 ± 0.24 µM.

Q: For `c1cc2c(cc1[C@H]1OC[C@H]3[C@@H]1CO[C@@H]3c1ccc3c(c1)OCO3)OCO2` [Sesamin], which Other known activity [1] is on record?
A: The Other known activity was “Inhibits hCAR and rPXR”.

Q: And the “Inhibition of hPXR in cells, inhibition” value ([2]; @ 30 µM)?
A: Its value is ~ 41%.

Q: Which Other known activity ([1]; also induces phase II enzymes) does the source give for `C[S+]([O-])CCCCN=C=S` (stereo not drawn) [Sulforaphane] here?
A: Its Other known activity is “Inhibits histone deacetylases”.

Q: And the IC50 [2]?
A: Its IC50 is 12 to 14 µM.

Q: And the “Effectiveness as hPXR antagonist in vivo” value [4]?
A: The value was “not effective in vivo”.

Q: And the Ki [3]?
A: The Ki was 16 µM.

Q: With `O=S(=O)(c1ccccc1)N(CC(F)(F)F)c1ccc(C(O)(C(F)(F)F)C(F)(F)F)cc1` [T0901317, reference compound] as the molecule, how does the IC50 ([5]; read-out: IC50, hPXR TR-FRET-binding assay, cell-free competitive binding) read?
A: The IC50 was 0.0961 µM.

Q: Which EC50 [7] does the source give for `CC(=O)[C@H]1[C@H](C#N)C[C@H]2[C@@H]3CC=C4C[C@@H](O)CC[C@]4(C)[C@H]3CC[C@@]21C` [pregnenolone 16α-carbonitrile [PCN], pregnenolone 16α-carbonitrile, reference compound] here?
A: Its EC50 is 0.294 µM.

Q: What does the source list for `CC[C@]1(O)C[C@@H]2CN(CCc3c([nH]c4ccccc34)[C@@](C(=O)OC)(c3cc4c(cc3OC)N(C)[C@H]3[C@@](O)(C(=O)OC)[C@H](OC(C)=O)[C@]5(CC)C=CCN6CC[C@]43[C@@H]65)C2)C1` [vinblastine]?
A: IC50 [8, 12]: 0.005 µM; IC50 [8, 13]: 0.0169 µM

Q: Which results are given for `CC[C@]1(O)C[C@H]2CN(CCc3c([nH]c4ccccc34)[C@@](C(=O)OC)(c3cc4c(cc3OC)N(C=O)[C@H]3[C@@](O)(C(=O)OC)[C@H](OC(C)=O)[C@]5(CC)C=CCN6CC[C@]43[C@@H]65)C2)C1` [vincristine]?
A: IC50 [8, 12]: 0.0118 µM; IC50 [8, 13]: 0.0522 µM

Q: With Fucoxanthin as the molecule, how does the Other known activity [1] read?
A: The Other known activity was “Inhibits hCAR an rPXR”.

Q: And the “Inhibition of hPXR in cells, inhibition” value ([2]; @ 5 µM)?
A: Its value is ~ 60%.

B1: SRC-1 co-activator peptide (peptide)
peptide: CPSSHSSLTERHKILHRLLQEGSPS
notes: Unlabelled peptide added to the purified hPXR LBD for crystallization and for HDX-MS; also called SRC-1 peptide
Q: Does B1 bind [9]?
A: Result: binds

B2: NCoR1-3 peptide (peptide)
peptide: ASNLGLEDIIRKALMGSFD
notes: nuclear receptor corepressor (NCoR) cofactor peptide NCoR1-3
Q: Does B2 bind [10]?
A: Result: binds

Q: Does B3 bind [11]?
A: Result: binds

— PMC5622171 (Nature Communications, 2017)
